Experimental data taken from ChEMBL document CHEMBL3745649, “Structure-activity relationship study of anticancer thymidine-quinoxaline conjugates under the low radiance of long wavelength ultraviolet light for photodynamic therapy” (Eur J Med Chem, 2016).
Active and inactive are the calls of the source. No cut-off for these calls is given here.

Experiments:
[1] = Dark toxicity against human PANC1 cells assessed as cell viability after 53 hrs by CCK8 assay in absence of UVA-1 irradiation; format: cell-based, PANC-1
[2] = Photocytotoxicity against human PANC1 cells assessed as cell viability preincubated for 5 hrs followed by UVA-1 irradiation at 0.85 mW/cm'2 for 20 mins measured after 48 hrs by CCK8 assay; format: functional, cell-based; settings: PANC-1, light or radiation study
[3] = Dark toxicity against human Bel7402 cells assessed as cell viability after 53 hrs by CCK8 assay in absence of UVA-1 irradiation; format: cell-based, Bel-7402
[4] = Photocytotoxicity against human Bel7402 cells assessed as cell viability preincubated for 5 hrs followed by UVA-1 irradiation at 0.85 mW/cm'2 for 20 mins measured after 48 hrs by CCK8 assay; format: functional, cell-based; settings: Bel-7402, light or radiation study
PANC-1 [5] = assay: Antioxidant activity in human PANC1 cells assessed as reduction of H2O2-induced reactive oxygen stress level at 5 uM after 15 mins by DCFH-DA based fluorescence assay; format: functional, cell-based
PANC-1 [6] = assay: Photocytotoxicity against human PANC1 cells assessed as production of reactive oxygen stress at 5 uM preincubated for 5 hrs followed by UVA-1 irradiation at 0.85 mW/cm'2 for 20 mins measured for 10 mins by DCFH-DA based fluorescence microscopic analysis; format: functional, cell-based
C6 = assay: Cytotoxicity against rat C6 cells assessed as cell viability after 72 hrs by MTT assay; format: functional, cell-based; settings: C6, 72 h
Bel-7402 = assay: Photocytotoxicity against human Bel7402 cells assessed as production of reactive oxygen stress at 5 uM preincubated for 5 hrs followed by UVA-1 irradiation at 0.85 mW/cm'2 for 20 mins measured for 10 mins by DCFH-DA based fluorescence microscopic analysis; format: functional, cell-based
[7] = Cytotoxicity against human Hep3B cells assessed as cell viability after 72 hrs by MTT assay; format: functional, cell-based, Hep 3B2
H22 = assay: Cytotoxicity against […] cells assessed as cell viability after 72 hrs by MTT assay; format: functional, cell-based; settings: Mus musculus, H22, 72 h
MCF7 = assay: Cytotoxicity against human MCF7 cells assessed as cell viability after 72 hrs by MTT assay; format: functional, cell-based; settings: MCF7, 72 h
HepG2 = assay: Cytotoxicity against human HepG2 cells assessed as cell viability after 72 hrs by MTT assay; format: functional, cell-based; settings: HepG2, 72 h
[8] = Photocytotoxicity against human Bel7402 cells assessed as cell viability preincubated for 5 hrs with cells followed by UVA-1 irradiation at 3.0 mW/cm'2 for 20 mins measured after 48 hrs by CCK8 assay; format: functional, cell-based; settings: Bel-7402, light or radiation study
[9] = Photocytotoxicity against human PANC1 cells assessed as cell viability preincubated for 5 hrs with cells followed by UVA-1 irradiation at 3.0 mW/cm'2 for 20 mins measured after 48 hrs by CCK8 assay; format: functional, cell-based; settings: PANC-1, light or radiation study
[10] = Cytotoxicity against human Bel7402 cells assessed as viable cells at 50 uM; format: functional; settings: Bel-7402, read-out: Activity
[11] = Cytotoxicity against human PANC1 cells assessed as viable cells at 50 uM; format: functional; settings: PANC-1, read-out: Activity
PANC-1 [12] = assay: Antioxidant activity in human PANC1 cells assessed as reduction of reactive oxygen stress level at 5 uM after 15 mins by DCFH-DA based fluorescence assay in absence of H2O2; format: functional, cell-based

SMILES	EC50 at 53 h [1] [µM]	EC50 [2] [µM]	EC50 at 53 h [3] [µM]	EC50 [4] [µM]	other results
Cc1cn([C@H]2C[C@H](n3cc(CNC(=O)CCCCCOc4ccc5c(c4)-c4nc6ccccc6nc4[C@H]4C(C)(C)CCC[C@]54C)nn3)[C@@H](CO)O2)c(=O)[nH]c1=O	> 50	11.3	> 20	5.1	–
Cc1cn([C@H]2C[C@H](n3cc(CNC(=O)CCCCCOc4ccc5c(c4)-c4nc6ccccc6nc4[C@@H]4C(C)(C)CCC[C@]54C)nn3)[C@@H](CO)O2)c(=O)[nH]c1=O	≥ 50	9.8	10	4.2	Activity (PANC-1 [5]): Active; Activity (PANC-1 [6]): Active; EC50 (C6): 6 µM; Activity (Bel-7402): Active; EC50 [7]: 6 µM; EC50 (H22): 6 µM; EC50 (MCF7): 6 µM; EC50 (HepG2): 6 µM
CCN(CC)CCNC(=O)c1c(C)[nH]c(/C=C2\C(=O)Nc3ccc(F)cc32)c1C [SUNITINIB]	–	–	–	–	EC50 [8]: 11 µM; EC50 [9]: 13 µM
Cc1cn([C@H]2C[C@H](n3cc(CNC(=O)CCCCCOc4ccc5c(c4)-c4nc6cc(F)ccc6nc4[C@@H]4C(C)(C)CCC[C@]54C)nn3)[C@@H](CO)O2)c(=O)[nH]c1=O	20	7	10	4	–
Cc1cn([C@H]2C[C@H](n3cc(CNC(=O)CCCCCCCOc4ccc5c(c4)-c4nc6ccccc6nc4[C@@H]4C(C)(C)CCC[C@]54C)nn3)[C@@H](CO)O2)c(=O)[nH]c1=O	≥ 50	5.7	10	4	–
Cc1cn([C@H]2C[C@H](n3cc(CNC(=O)CCCCCOc4ccc5c(c4)-c4nc6cc(Br)c(Br)cc6nc4[C@@H]4C(C)(C)CCC[C@]54C)nn3)[C@@H](CO)O2)c(=O)[nH]c1=O	≥ 50	5.8	> 20	2.1	–
Nc1ccn([C@@H]2O[C@H](CO)[C@@H](O)C2(F)F)c(=O)n1 [GEMCITABINE]	–	–	–	–	viability at 50 µM [10]: < 20%; viability at 50 µM [11]: < 20%
Cc1cn([C@H]2C[C@H](n3cc(CNC(=O)CCCCCOc4ccc5c(c4)-c4nc6ccc(F)cc6nc4[C@@H]4C(C)(C)CCC[C@]54C)nn3)[C@@H](CO)O2)c(=O)[nH]c1=O	≥ 50	13.5	10	7.4	–
Cc1cn([C@H]2C[C@H](n3cc(CCCC(=O)Nc4cc5ccc6cccc7ccc(c4)c5c67)nn3)[C@@H](CO)O2)c(=O)[nH]c1=O	> 50	> 20	> 50	> 20	–
CC1(C)CCC[C@]2(C)c3ccc(OCCCCCC(=O)NCc4cn([C@@H]5O[C@H](CO)[C@H](O)[C@H](O)[C@H]5O)nn4)cc3-c3nc4ccccc4nc3[C@H]12	> 50	> 20	> 50	> 20	Activity (PANC-1 [12]): Active; Activity (PANC-1 [5]): Active; Activity (PANC-1 [6]): inactive; Activity (Bel-7402): inactive
Cc1cn([C@H]2C[C@H](n3cc(CNC(=O)CCCOc4ccc5c(c4)-c4nc6ccccc6nc4[C@@H]4C(C)(C)CCC[C@]54C)nn3)[C@@H](CO)O2)c(=O)[nH]c1=O	20	> 10	> 20	10.9	–
[N-]=[N+]=N[C@@H]1O[C@H](CO)[C@H](O)[C@H](O)[C@H]1O	–	–	–	–	Activity (PANC-1 [5]): Active
Cc1cn([C@H]2C[C@H](n3cc(CNC(=O)COc4ccc5c(c4)-c4nc6ccccc6nc4[C@@H]4C(C)(C)CCC[C@]54C)nn3)[C@@H](CO)O2)c(=O)[nH]c1=O	20	> 20	> 20	12.5	–
Cc1cn([C@H]2C[C@H](n3cc(CNC(=O)CCCCCCCOc4ccc5c(c4)-c4nc6ccccc6nc4[C@H]4C(C)(C)CCC[C@]54C)nn3)[C@@H](CO)O2)c(=O)[nH]c1=O	> 50	8.1	10	5.6	–
Cc1cn([C@H]2C[C@H](n3cc(CNC(=O)CCCCCOc4ccc5c(c4)C(=O)C(=O)[C@@H]4C(C)(C)CCC[C@]54C)nn3)[C@@H](CO)O2)c(=O)[nH]c1=O	> 50	> 20	> 50	> 20	–
